Data set [1] can be described thus: Photostability of a film of 5% solution in Miglyol 812 under Oriel solar simulator, HPLC quantification. It is filed as physicochemical. The following applies: 5% by weight in Miglyol 812, 1 mg/cm^2 film, irradiated one hour, solar simulator UV-A=14.2 mW/cm^2, UV-B=0.41 mW/cm^2. The protocol: The two products were dissolved at 5% by weight in the oil Miglyol 812. Approximately 10 mg of oily solution are spread over 10 cm^2 at the surface of a hollow disc of frosted glass; the amount is determined by weighing.
The films of the oily solutions are irradiated for one hour using an Oriel solar simulator (UV-A=14.2 mW/cm^2; UV-B=0.41 mW/cm^2), then extracted with 10 ml of ethanol comprising 10% of isopropanol and subjected to ultrasound for 5 min. The products are quantified by HPLC of the extracts.
HPLC conditions: column: UP5WOD-25QS, 250×4.6 mm, 5 μm, Interchrom; eluent: methanol (Comparative Example 1) and 96% of methanol+4% of water (Example 1); flow rate: 1 ml/min; volume injected: 10 μl; detection: diode array; rt (min): 5.2 (Comparative Example 1) and 13.8 (Example 1).
The degrees of loss are determined by comparison of the amounts of product present in the irradiated samples and in the non-irradiated controls prepared simultaneously and treated in the same way (means over 3 samples; S=surface/mg solution): % loss=100×(So−Sirr)/So

The nature of data set [2]: UV absorption spectrum in ethanol. It is filed as physicochemical. The protocol: 2,4,6-Tris(diethyl 4′-aminobenzalmalonate)-s-triazine (1 g, […]) (Example 1 of Application EP 0,507,691) is dissolved in 5 ml of trimethylsilylethyl alcohol while sparging with nitrogen. The mixture is subsequently heated at reflux for 25 hours with 0.2 g of para-toluenesulphonic acid. After addition of 30 ml of dichloromethane, the organic phase is washed with water and then with an aqueous sodium bicarbonate solution, and dried. It is concentrated under reduced pressure. The residue obtained is purified by chromatography on a silica column (eluent: heptane/AcOEt 85/15). 0.35 g (Yield 32%) of the derivative of Example 2 is collected in the form of a pale yellow gum: • UV (ethanol) λ max=355 nm; ε max=125 250;E1%=965. […]

Data on 3 molecules can be found in patent US8221728B2, “Silanic para-aminobenzalmalonate-substituted s-triazine compounds and photoprotective compositions comprised thereof” (L'Oreal, priority 2004, dated 2012).

Where “and” joins values, the source holds several entries; their conditions need not be identical. Equal entries are not always repeated.

In the case of `CC(C)COC(=O)C(=Cc1ccc(Nc2nc(Nc3ccc(C=C(C(=O)OCC(C)C)C(=O)OCC(C)C)cc3)nc(Nc3ccc(C=C(C(=O)OCC(C)C)C(=O)OCC(C)C)cc3)n2)cc1)C(=O)OCC(C)C` [Compound (prior art), 2,4,6-Tris(diisobutyl 4′-aminobenzalmalonate)-s-triazine], in data set [1], the “% of disappearance (% loss)” value is 11% and 10% and 9%.
Take “2,4,6-tris(di(trimethylsilylmethyl) 4′-aminobenzalmalonate)-s-triazine [Example 1]”: in data set [2], the E1% was 987, the ε max is recorded as 118 970 and the λ max was 355 nm.
On to `C[Si](C)(C)CCOC(=O)C(=Cc1ccc(Nc2nc(Nc3ccc(C=C(C(=O)OCC[Si](C)(C)C)C(=O)OCC[Si](C)(C)C)cc3)nc(Nc3ccc(C=C(C(=O)OCC[Si](C)(C)C)C(=O)OCC[Si](C)(C)C)cc3)n2)cc1)C(=O)OCC[Si](C)(C)C` [Example 2, 2,4,6-tris(di(trimethylsilylethyl) 4′-aminobenzalmalonate)-s-triazine], for which, in data set [2], the E1% is 965, the ε max is 125 250 and the λ max worked out at 355 nm.
